Test results as given in patent publication USRE36832E, “N-heteroaryl-N'-phenylurea derivatives, their production and use” (Nihon Nohyaku Co., LTD, priority 1993, dated 2000).

Target: T1, acyl-CoA:cholesterol O-acyltransferase (ACAT) (Oryctolagus cuniculus, UniProt G1SFD9)
T1 construct: The intestinal mucosa of a white rabbit was homogenized and microsomal fraction was obtained by stepwise centrifugation; from tissue; host or cells: intestinal mucosa of white rabbit, microsomal fraction
T1 sequence (G1SFD9 1-524): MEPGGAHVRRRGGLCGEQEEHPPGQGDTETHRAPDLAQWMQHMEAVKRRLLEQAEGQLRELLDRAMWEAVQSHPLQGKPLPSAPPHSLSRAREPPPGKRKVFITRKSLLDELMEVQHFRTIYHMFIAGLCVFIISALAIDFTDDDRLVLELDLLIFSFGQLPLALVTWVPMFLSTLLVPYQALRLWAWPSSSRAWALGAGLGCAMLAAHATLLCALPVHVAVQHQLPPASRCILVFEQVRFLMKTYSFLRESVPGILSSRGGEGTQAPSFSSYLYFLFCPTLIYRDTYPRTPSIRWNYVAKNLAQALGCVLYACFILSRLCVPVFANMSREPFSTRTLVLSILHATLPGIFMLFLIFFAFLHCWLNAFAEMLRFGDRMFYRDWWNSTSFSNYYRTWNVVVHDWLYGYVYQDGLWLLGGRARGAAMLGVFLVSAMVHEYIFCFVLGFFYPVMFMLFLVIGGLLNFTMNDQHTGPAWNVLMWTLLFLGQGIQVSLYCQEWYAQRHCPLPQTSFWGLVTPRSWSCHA
Assay: Inhibitory activity on acyl-CoA:cholesterol O-acyltransferase (ACAT), intestinal mucosa microsomal fraction, [1-14C]oleyl-CoA incorporation into cholesterol esters
Type: biochemical, white rabbit
Conditions: read-out: Inhibition rate %
Protocol: Inhibitory activity on acyl-CoA:cholesterol Oacyltransferase (ACAT)
The enzyme used in the test was prepared according to the method of Heider et al. [J. Lipid, Res. 24, 1127 (1983)]. The intestinal mucosa of a white rabbit was homogenized and microsomal fraction was obtained by stepwise centrifugation. The microsomal fraction was suspended in 0,154M phosphate buffer (pH 0 7.4) and stored at -80° C. until use.
ACAT activity was determined by a modification of the method of Helgerud et al. [J. Lipid Res. 22, 271 (1981)] by measuring radioactivity incorporated into cholesterol esters from [1-14C]oleyl-CoA, as an indication. As to the ACAT-inhibiting activity of each compound to be tested, the inhibition rate was calculated by the following equation.

| Structure (SMILES) | inhibition at 0.01 µM [%] | inhibition at 1 µM [%] |
| --- | --- | --- |
| CSc1ccccc1-c1c(NC(=O)Nc2c(C(C)C)cccc2C(C)C)oc2ccc(Cl)cc12 [Compound 63, N-[5-Chloro-3-(2-methylthiophenyl)benzofuran-2-yl]-N'-(2,6-diisopropylphenyl)urea] | 72.1 | – |
| CCc1cccc(CC)c1NC(=O)Nc1sc2ccc(Cl)cc2c1-c1ccccc1Cl [Compound 65, N-[5-Chloro-3-(2-chlorophenyl)-1-benzothiophen-2-yl]-N'-(2,6-diethylphenyl)urea] | 56.5 | 99.1 |
| CCc1cccc(CC)c1NC(=O)Nc1sc2ccc(C)cc2c1-c1ccccc1Cl [Compound 72, N-[3-(2-Chlorophenyl)-5-methyl-1-benzothiophen-2-yl]-N'-(2,6-diethylphenyl)urea] | 60.6 | – |
| CCc1cccc(CC)c1NC(=O)Nc1sc2ccc(C(C)C)cc2c1-c1ccccc1Cl [Compound 76, N-[3-(2-Chlorophenyl)-5-isopropyl-1-benzothiophen-2-yl]-N'-(2,6-diethylphenyl)urea] | 71 | – |
| CC(C)c1ccc2sc(NC(=O)Nc3c(C(C)C)cccc3C(C)C)c(-c3ccccc3Cl)c2c1 [Compound 77, N-[3-(2-chlorophenyl)-5-isopropyl-1-benzothiophen-2-yl]-N'-(2,6-diisopropylphenyl)urea] | 51.7 | – |
| Cc1cc2sc(NC(=O)Nc3c(C(C)C)cccc3C(C)C)c(-c3ccccc3Cl)c2cc1C [Compound 81, N-(3-(2-Chlorophenyl)-5,6-dimethyl-1-benzothiophen-2-yl]-N'-(2,6-diisopropylphenyl)urea] | 41.4 | – |
| Cc1cc2sc(NC(=O)Nc3c(C)cccc3C(C)C)c(-c3ccccc3Cl)c2cc1C [Compound 82, N-[3-(2-Chlorophenyl)-5,6-dimethyl-1-benzothiophen-2-yl]-N'-(2-isopropyl-6-methylphenyl)urea] | 67 | – |
| Cc1cc2sc(NC(=O)Nc3c(C)cccc3N(C)C)c(-c3ccccc3Cl)c2cc1C [Compound 83, N-[3-(2-Chlorophenyl)-5,6-dimethyl-1-benzothiophen-2-yl]-N'-(2-dimethylamino-6-methylphenyl)urea] | 81.3 | – |
| Cc1cc2sc(NC(=O)Nc3ccc(F)cc3F)c(-c3ccccc3Cl)c2cc1C [Compound 84, N-[3-(2-Chlorophenyl)-5,6-dimethyl-1-benzothiophen-2-yl]-N'-(2,4-difluorophenyl)urea] | 78.6 | – |
| Cc1cccc(C)c1NC(=O)Nc1sc2cc3c(cc2c1-c1ccccc1Cl)CCC3 [Compound 87, N-[3-(2-Chlorophenyl)-6,7-dihydro-5H-cyclopenta[f][1]benzothiophen-2-yl]-N'-(2,6-dimethylphenyl)urea] | 60.4 | – |
| CCc1cccc(CC)c1NC(=O)Nc1sc2cc3c(cc2c1-c1ccccc1Cl)CCC3 [Compound 88, N-[3-(2-Chlorophenyl)-6,7-dihydro-5H-cyclopenta[f][1]benzothiophen-2-yl]-N'-(2,6-diethylphenyl)urea] | 85.8 | – |
| CC(C)c1cccc(C(C)C)c1NC(=O)Nc1sc2cc3c(cc2c1-c1ccccc1Cl)CCC3 [Compound 89, N-[3-(2-Chlorophenyl)-6,7-dihydro-5H-cyclopenta[f][1]benzothiophen-2-yl]-N'-(2,6-diisopropylphenyl)urea] | 44.4 | – |
| Cc1cccc(C(C)C)c1NC(=O)Nc1sc2cc3c(cc2c1-c1ccccc1Cl)CCC3 [Compound 90, N-[3-(2-Chlorophenyl)-6,7-dihydro-5H-cyclopenta[f][1]benzothiophen-2-yl]-N'-(2-isopropyl-6-methylphenyl)urea] | 75.4 | – |
| Cc1cccc(N(C)C)c1NC(=O)Nc1sc2cc3c(cc2c1-c1ccccc1Cl)CCC3 [Compound 91] | 65 | – |
| O=C(Nc1ccc(F)cc1F)Nc1sc2cc3c(cc2c1-c1ccccc1Cl)CCC3 [Compound 92, N-(3-(2-Chlorophenyl)-6,7-dihydro-5H-cyclopenta[f][1]benzothiophen-2-yl]-N'-(2,4-difluorophenyl)urea] | 81.7 | – |
| O=C(Nc1sc2cc3c(cc2c1-c1ccccc1Cl)CCC3)Nc1c(F)cccc1F [Compound 93, N-[3-(2-Chlorophenyl)-6,7-dihydro-5H-cyclopenta[f][1]benzothiophen-2-yl]-N'-(2,6-difluorophenyl)urea] | 69.7 | – |

| Structure (SMILES) | inhibition at 0.01 µM [%] | inhibition at 1 µM [%] |
| --- | --- | --- |
| O=C(Nc1sc2cc3c(cc2c1-c1ccccc1Cl)CCC3)Nc1c(F)cc(F)cc1F [Compound 94, N-[3-(2-Chlorophenyl)-6,7-dihydro-5H-cyclopenta[f][1]benzothiophen-2-yl]-N'-(2,4,6-trifluorophenyl)urea] | 76.7 | – |
| O=C(Nc1sc2cc3c(cc2c1-c1ccccc1Cl)CCC3)Nc1c(Cl)cccc1Cl [Compound 95, N-[3-(2-Chlorophenyl)-6,7-dihydro-5H-cyclopenta[f][1]benzothiophen-2-yl]-N'-(2,6-dichlorophenyl)urea] | 66.4 | – |
| CCc1cccc(CC)c1NC(=O)Nc1sc2cc3c(cc2c1-c1ccccc1Cl)CCCC3 [Compound 96, N-[3-(2-Chlorophenyl)-5,6,7,8-tetrahydronaphthono[2,3-b]thiophen-2-yl]-N'-(2,6-diethylphenyl)urea] | 80.7 | – |
| Cc1cccc(C(C)C)c1NC(=O)Nc1sc2cc3c(cc2c1-c1ccccc1Cl)CCCC3 [Compound 98, N-[3-(2-Chlorophenyl)-5,6,7,8-tetrahydronaphtho[2,3-b]thiophen-2-yl]-N'-(2-isopropyl-6-methylphenyl)urea] | 66 | – |
| O=C(Nc1ccc(F)cc1F)Nc1sc2cc3c(cc2c1-c1ccccc1Cl)CCCC3 [Compound 99, N-[3-(2-Chlorophenyl)-5,6,7,8-tetrahydronaphtho[2,3-b]thiophen-2-yl]-N'-(2,4-difluorophenyl)urea] | 90.1 | – |
| CC(C)c1cccc(C(C)C)c1NC(=O)Nc1sc2ccc([N+](=O)[O-])cc2c1-c1ccc(Cl)cc1Cl [Compound 100, N-[3-(2,4-Dichlorophenyl)-5-nitro-1-benzothiophen-2-yl]-N'-(2,6-diisopropylphenyl)urea] | 18.4 | – |
| CCc1cccc(CC)c1NC(=O)Nc1sc2cc(OC)c(OC)cc2c1-c1ccccc1Cl [Compound 102, N-[3-(2-Chlorophenyl)-5,6-dimethoxy-1-benzothiophen-2-yl]-N'-(2,6-diethylphenyl)urea] | 43.3 | – |
| O=C(Nc1ccc(F)cc1F)Nc1sc2cc3c(cc2c1-c1ccc(Cl)cc1Cl)CCC3 [Compound 107, N-[3-(2,4-Dichlorophenyl)-6,7-dihydro-5H-cyclopenta[f][1]benzothiophen-2-yl]-N'-(2,4-difluorophenyl)urea] | 36.2 | – |
| Cc1ccccc1-c1c(NC(=O)Nc2c(C)cccc2C(C)C)sc2cc3c(cc12)CCC3 [Compound 111, N-(2-Isopropyl-6-methylphenyl)-N'-[3-(2methylphenyl)-6,7-dihydro-5H-cyclopenta[f][1]benzothiophen-2-yl]urea] | 69.2 | – |
| CCc1cccc(CC)c1NC(=O)Nc1sc2cc3c(cc2c1-c1ccccc1C(F)(F)F)CCC3 [Compound 113, N-(2,6-Diethylphenyl)-N'-[3-(2-trifluoromethylphenyl)-6,7-dihydro-5H-cyclopenta[f][1]-benzothiophen-2-yl]urea] | 43.5 | – |
| Cc1ccccc1-c1c(NC(=O)Nc2ccc(F)cc2F)sc2cc3c(cc12)CCCC3 [Compound 119, N-(2,4-Difluorophenyl)-N'-[3-(2-methylphenyl)5,6,7,8-tetrahydronaphtho [2,3-b]thiophen-2-yl]urea] | 79.5 | – |
| Cc1ccc(S(=O)(=O)n2c(NC(=O)Nc3ccc(F)cc3F)c(-c3ccccc3)c3ccccc32)cc1 [Compound 120, N-(2,4-Difluorophenyl)-N'-[3-phenyl-1-(p-toluenesulfonyl)-3-phenylindole-2-yl]urea] | – | 60.4 |
| Cc1ccc(S(=O)(=O)n2c(NC(=O)Nc3c(C)cccc3C(C)C)c(-c3ccccc3Cl)c3cc(C)cc(C)c32)cc1 [Compound 121, N-[3-(2-chlorophenyl)-5,7-dimethyl-1-(p-toluenesulfonyl)indole-2-yl]-N'-(2-isopropyl-6-methylphenyl)urea] | – | 85.8 |
| Cc1ccc(S(=O)(=O)n2c(NC(=O)Nc3ccc(F)cc3F)c(-c3ccccc3Cl)c3cc(C)cc(C)c32)cc1 [Compound 122, N-[3-(2-Chlorophenyl)-5,7-dimethyl-1-(p-toluenesulfonyl)indole-2-yl]-N'-(2,4-difluorophenyl)urea] | – | 75.4 |
| Cc1cc(C)c2c(c1)c(-c1ccccc1Cl)c(NC(=O)Nc1ccc(F)cc1F)n2C [Compound 124, N-[3-(2-Chlorophenyl)-5,7-dimethyl-1-methylindole-2-yl]-N'-(2,4-difluorophenyl)urea] | – | 81.7 |
